The source of these data is US10167284B2, “Spirocyclic compounds as agonists of the muscarinic M1 receptor and/or M4 receptor” (HEPTARES THERAPEUTICS LIMITED, priority 2015, dated 2019).

The test system of assay [1] is d-amphetamine induced hyperactivity in rats. Kind of assay: d-Amphetamine-induced hyperactivity in rats. The assay is classed as in vivo. The settings on record: positive control dose, previously observed. The protocol: Effect of a Novel Test Compound and Xanomeline on d-Amphetamine-Induced Hyperactivity in Rats
The aim of the study is to examine the effect of a novel test compound on d-amphetamine induced hyperactivity in rats. Schizophrenia is a complex multifactorial disease that cannot be fully represented by a single experimental procedure. Antipsychotic-like behaviour was assessed in rats by the inhibition of hyperactivity (or hyperlocomotion) elicited by d-amphetamine. This procedure is sensitive to clinically relevant dopamine receptor antagonists and is therefore considered suitable for comparing muscarinic agonists that influence dopaminergic signalling. […] Statistical analysis typically involved three-way analysis of covariance or robust regression with treatment, day and rack as factors and activity during the 30 minutes prior to treatment as a covariate, followed by appropriate multiple comparison tests. A P value of <0.05 was considered statistically significant and is marked accordingly in all subsequent figures.

Assay [2] deals with T1, human muscarinic M1 receptor (Homo sapiens, UniProt P11229).
T1 construct: expressed in transfected cells
T1 sequence (P11229 1-460): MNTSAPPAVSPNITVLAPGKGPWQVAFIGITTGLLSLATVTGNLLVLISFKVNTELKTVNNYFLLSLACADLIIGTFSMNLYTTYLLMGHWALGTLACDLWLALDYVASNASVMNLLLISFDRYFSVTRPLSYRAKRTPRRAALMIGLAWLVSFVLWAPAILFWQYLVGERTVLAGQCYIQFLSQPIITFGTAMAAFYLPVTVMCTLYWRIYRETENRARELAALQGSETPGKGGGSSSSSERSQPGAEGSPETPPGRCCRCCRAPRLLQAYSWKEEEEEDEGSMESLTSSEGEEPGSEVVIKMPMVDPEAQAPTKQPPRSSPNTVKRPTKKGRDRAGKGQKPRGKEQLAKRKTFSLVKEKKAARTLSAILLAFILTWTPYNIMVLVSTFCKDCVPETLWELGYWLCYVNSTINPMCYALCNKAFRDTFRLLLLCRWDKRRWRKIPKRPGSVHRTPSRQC
Kind of assay: Alphascreen Surefire phospho-ERK1/2 functional assay, M1. The assay is classed as cell-based. Conditions: for EC50 / M1 % Emax cf. ACh: CHO cells stably expressing human M1; for EC50: phospho-ERK1/2, read-out: pEC50 M1 (converted); for Emax: CHO, read-out: M1 % Emax cf. ACh, CHO cells stably expressing human M1; for Emax / M1 % Emax cf. ACh: Emax relative to ACh. Background: Alpha assays give light when donor and acceptor beads are brought close together.

In assay [3] the target is T2, human muscarinic M4 receptor (Homo sapiens, UniProt P08173).
T2 construct: expressed in transfected cells
T2 sequence (P08173 1-479): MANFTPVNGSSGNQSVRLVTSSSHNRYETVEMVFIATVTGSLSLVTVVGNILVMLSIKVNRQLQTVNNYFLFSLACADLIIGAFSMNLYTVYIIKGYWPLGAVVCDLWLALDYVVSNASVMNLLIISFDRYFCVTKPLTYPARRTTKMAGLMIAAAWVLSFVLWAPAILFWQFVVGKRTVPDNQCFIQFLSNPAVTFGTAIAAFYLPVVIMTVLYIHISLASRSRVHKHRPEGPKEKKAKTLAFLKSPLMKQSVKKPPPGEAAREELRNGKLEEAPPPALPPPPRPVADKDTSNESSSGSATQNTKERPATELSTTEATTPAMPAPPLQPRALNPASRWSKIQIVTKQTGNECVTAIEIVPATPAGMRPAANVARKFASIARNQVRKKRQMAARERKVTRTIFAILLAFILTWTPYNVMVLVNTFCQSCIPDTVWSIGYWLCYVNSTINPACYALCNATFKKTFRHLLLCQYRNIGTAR
Kind of assay: Alphascreen Surefire phospho-ERK1/2 functional assay, M4. The assay is classed as cell-based. The settings on record: for EC50: phospho-ERK1/2, read-out: pEC50 M4 (converted); for Emax: CHO, read-out: M4 % Emax cf. ACh, CHO cells stably expressing human M4.
Procedure: (§1) CHO cells stably expressing the human muscarinic M1, M2, M3 or M4 receptor were plated (25K/well) onto 96-well tissue culture plates in MEM-alpha+10% dialysed FBS. Once adhered, cells were serum-starved overnight. Agonist stimulation was performed by the addition of 5 μL agonist to the cells for 5 min (37° C.). Media was removed and 50 μL of lysis buffer added. After 15 min, a 4 μL sample was transferred to 384-well plate and 7 μL of detection mixture added. Plates were incubated for 2 h with gentle agitation in the dark and then read on a PHERAstar plate reader.
(§2) pEC50 and Emax figures were calculated from the resulting data for each receptor subtype.

For assay [4], the target named is T3, human muscarinic M2 receptor (Homo sapiens, UniProt P08172).
T3 sequence (P08172 1-466): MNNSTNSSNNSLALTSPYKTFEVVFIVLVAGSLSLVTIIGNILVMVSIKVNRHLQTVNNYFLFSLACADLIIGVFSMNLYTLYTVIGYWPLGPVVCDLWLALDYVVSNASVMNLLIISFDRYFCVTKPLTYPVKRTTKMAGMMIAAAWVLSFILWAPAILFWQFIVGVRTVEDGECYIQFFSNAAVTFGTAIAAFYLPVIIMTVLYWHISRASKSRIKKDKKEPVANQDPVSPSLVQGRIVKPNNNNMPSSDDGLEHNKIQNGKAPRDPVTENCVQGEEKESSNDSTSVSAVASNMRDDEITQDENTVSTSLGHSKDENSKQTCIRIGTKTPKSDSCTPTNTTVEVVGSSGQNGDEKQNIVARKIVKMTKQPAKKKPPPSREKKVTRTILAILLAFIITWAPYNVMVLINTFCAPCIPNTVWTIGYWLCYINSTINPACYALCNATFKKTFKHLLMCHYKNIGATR
Kind of assay: Alphascreen Surefire phospho-ERK1/2 functional assay, M2. The settings on record: for Emax: CHO, read-out: M2 % Emax cf. ACh, CHO cells stably expressing human M2; for EC50: pEC50 M2, CHO cells stably expressing human M2, phospho-ERK1/2.
Procedure: as §1, §2

For assay [5], the target named is human muscarinic M3 receptor (Homo sapiens, UniProt P20309). The experiment in a line: Alphascreen Surefire phospho-ERK1/2 functional assay, M3. The settings on record: for Emax: CHO, read-out: M3 % Emax cf. ACh, CHO cells stably expressing human M3.
Procedure: as §1, §2
The mark [6] stands for this setting: CHO cells stably expressing human M4.

human muscarinic M3 receptor, sequence (P20309 whole entry): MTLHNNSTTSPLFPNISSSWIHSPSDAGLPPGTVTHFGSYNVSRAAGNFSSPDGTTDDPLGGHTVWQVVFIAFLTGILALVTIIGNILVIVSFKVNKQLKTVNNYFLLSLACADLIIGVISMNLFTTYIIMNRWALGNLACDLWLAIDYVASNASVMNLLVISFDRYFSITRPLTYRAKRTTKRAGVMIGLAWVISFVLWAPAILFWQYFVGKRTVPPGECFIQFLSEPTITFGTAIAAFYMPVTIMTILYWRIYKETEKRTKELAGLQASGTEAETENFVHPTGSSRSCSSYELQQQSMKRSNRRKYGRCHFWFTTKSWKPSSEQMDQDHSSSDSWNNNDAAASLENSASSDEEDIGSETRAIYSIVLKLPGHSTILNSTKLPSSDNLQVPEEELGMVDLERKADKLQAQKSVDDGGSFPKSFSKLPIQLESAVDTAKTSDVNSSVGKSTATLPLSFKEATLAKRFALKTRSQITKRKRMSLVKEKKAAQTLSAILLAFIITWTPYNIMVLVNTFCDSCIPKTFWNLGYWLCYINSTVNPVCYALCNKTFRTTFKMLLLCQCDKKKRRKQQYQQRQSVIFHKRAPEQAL

On to `CCCCCCOc1nsnc1C1=CCCN(C)C1` [xanomeline], for which the d-amphetamine induced hyperactivity entry in assay [1] is reported as “significantly reduce”.

Take `COC(=O)N1CCC2(CC(N3CCC4(CC3)CNC(=O)C4)C2)C1` (single isomer, unassigned) [3-1 Isomer 2]: the EC50 in assay [2] is 79.4 nM; in assay [3] (setting [6]), 100 nM; in assay [4], greater than 20000 nM; in assay [5], greater than 20000 nM. In addition, the maximum response (Emax) came out at 87% in assay [2], 50% in assay [3] (Emax relative to ACh), 14% in assay [4] (Emax relative to ACh) and 20% in assay [5] (Emax relative to ACh).

As for `CCOC(=O)N1CCC2(CC(N3CCC4(CC3)OC(=O)NC4C)C2)C1` (single isomer, unassigned) [4-11 Isomer 2], the EC50 was 158 nM in assay [2], 79.4 nM in assay [3] (setting [6]), greater than 20000 nM in assay [4] and greater than 20000 nM in assay [5]. Further, the Emax was found to be 114% in assay [2], 102% in assay [3] (Emax relative to ACh), 7% in assay [4] (Emax relative to ACh) and 7% in assay [5] (Emax relative to ACh).

For `CCOC(=O)N1CCC2(CC(N3CCC4(CC3)OC(=O)N(CC(C)C)C4(C)C)C2)C1` (single isomer, unassigned) [4-38 Isomer 1], the “M1 % Emax cf. ACh” value in assay [2] is “(72) %”. Moreover, the EC50 in assay [2] is 1000 nM; in assay [3] (setting [6]), 63.1 nM; in assay [4] it was greater than 20000 nM; in assay [5], greater than 20000 nM. Moreover, the Emax in assay [3] (Emax relative to ACh) was 97%. For the same molecule, in assay [4] (CHO cells stably expressing human M2, Emax relative to ACh), the “M2 % Emax cf. ACh” value is on record as “(7) %”. The “M3 % Emax cf. ACh” value in assay [5] (CHO cells stably expressing human M3, Emax relative to ACh) is listed as “(3) %”.

Turning to `CCCN1C(=O)OC2(CCN(C3CC4(CCN(C(=O)OCC)C4)C3)CC2)C1(C)C` (single isomer, unassigned) [4-37 Isomer 1], in assay [2], the “M1 % Emax cf. ACh” value is reported as “(84) %”. Moreover, the EC50 in assay [2] is 398 nM; in assay [3] (setting [6]) it was 5.01 nM; in assay [4], greater than 20000 nM; in assay [5], greater than 20000 nM. Also, the “M4 % Emax cf. ACh” value in assay [3] (CHO cells stably expressing human M4, Emax relative to ACh) is listed as “(138) %”. Further, the values for the maximal response (Emax) in assay [4] (Emax relative to ACh) and in assay [5] (Emax relative to ACh) were 3% and 7%, respectively.

Turning to `CCOC(=O)N1CC2(CC(N3CCC4(CC3)OC(=O)N(CC)C4(C)C)C2)C1` [Example 2-4, ethyl 6-(3-ethyl-4,4-dimethyl-2-oxo-1-oxa-3,8-diazaspiro[4.5]dec-8-yl)-2-azaspiro[3.3]heptane-2-carboxylate], the EC50 in assay [2] was 1000 nM; in assay [3] (setting [6]), 501 nM; in assay [4], greater than 20000 nM; in assay [5], greater than 20000 nM. Moreover, the Emax stood at 56% in assay [2], 95% in assay [3] (Emax relative to ACh), 14% in assay [4] (Emax relative to ACh) and 24% in assay [5] (Emax relative to ACh).

Regarding `CCCN1C(=O)OC2(CCN(C3CC4(CCN(C(=O)OC)C4)C3)CC2)C1(C)C` (single isomer, unassigned) [4-36 Isomer 2], the EC50 was 12600 nM in assay [2], 79.4 nM in assay [3] (setting [6]), greater than 20000 nM in assay [4] and greater than 20000 nM in assay [5]. Also, the Emax in assay [2] came to 35%; in assay [3] (Emax relative to ACh) it was 106%; in assay [4] (Emax relative to ACh) it was 52%; in assay [5] (Emax relative to ACh), 1%.

On to `[2H]C([2H])([2H])OC(=O)N1CCC2(CC(N3CCC4(CC3)CNC(=O)O4)C2)C1` (single isomer, unassigned) [4-2 Isomer 2], for which the EC50 in assay [2] is 251 nM; in assay [3] (setting [6]) it was 200 nM; in assay [4], greater than 20000 nM; in assay [5] it was greater than 20000 nM. Moreover, the maximal effect (Emax) in assay [2] amounted to 113%; in assay [3] (Emax relative to ACh), 76%; in assay [4] (Emax relative to ACh) it was 13%; in assay [5] (Emax relative to ACh), 42%.

For `CCOC(=O)N1CCC2(CC(N3CCC4(CC3)OC(=O)N(CC(F)(F)F)C4(C)C)C2)C1` (single isomer, unassigned) [4-43 Isomer 2], the EC50 is greater than 20000 nM in assay [2], 79.4 nM in assay [3] (setting [6]), greater than 20000 nM in assay [4] and greater than 20000 nM in assay [5]. Also, the Emax came to 6% in assay [2], 75% in assay [3] (Emax relative to ACh), 5% in assay [4] (Emax relative to ACh) and 6% in assay [5] (Emax relative to ACh).

For the molecule `CCOC(=O)N1CCC2(CC(N3CCC4(CC3)CC(=O)NN4CC)C2)C1` (single isomer, unassigned) [6-2 Isomer 2], the EC50 in assay [2] was 63.1 nM; in assay [3] (setting [6]), 20 nM; in assay [4] it was greater than 20000 nM; in assay [5] it was greater than 20000 nM. The Emax in assay [2] came out at 109%; in assay [3] (Emax relative to ACh), 114%; in assay [4] (Emax relative to ACh) it was 0%; in assay [5] (Emax relative to ACh) it was 10%.

In the case of `CCOC(=O)N1CCC2(CC(N3CCC4(CC3)CNC(=O)C4)C2)C1` (single isomer, unassigned) [3-2 Isomer 2], the EC50 in assay [2] was 15.8 nM; in assay [3] (setting [6]), 20 nM; in assay [4], greater than 20000 nM; in assay [5], greater than 20000 nM. Also, the Emax in assay [2] came out at 87%; in assay [3] (Emax relative to ACh) it was 50%; in assay [4] (Emax relative to ACh), 3%; in assay [5] (Emax relative to ACh), 2%.

Usually Emax stands for the size of the effect at its maximum, as opposed to the concentration needed.
